Experiment [1] in a line: Displacement of [35S](2S,3S,4S,5R,6S)-6-(4-((2S,3R)-3-((S)-3-(4-fluorophenyl)-3-hydroxypropyl)-1-(4-(3-(methylsulfonamido)prop-1-ynyl)phenyl)-4-oxoazetidin-2-yl)phenoxy)-3,4,5-trihydroxytetrahydro-2H-pyran-2-carboxylic acid from NPC1L1 in guinea pig enterocyte brush border membrane. Set-up: species or system Cavia porcellus.
For experiment [2], the target named is T1, Niemann-Pick C1-like 1 protein (Canis lupus familiaris, UniProt A0MJA4).
T1 sequence (A0MJA4 whole entry): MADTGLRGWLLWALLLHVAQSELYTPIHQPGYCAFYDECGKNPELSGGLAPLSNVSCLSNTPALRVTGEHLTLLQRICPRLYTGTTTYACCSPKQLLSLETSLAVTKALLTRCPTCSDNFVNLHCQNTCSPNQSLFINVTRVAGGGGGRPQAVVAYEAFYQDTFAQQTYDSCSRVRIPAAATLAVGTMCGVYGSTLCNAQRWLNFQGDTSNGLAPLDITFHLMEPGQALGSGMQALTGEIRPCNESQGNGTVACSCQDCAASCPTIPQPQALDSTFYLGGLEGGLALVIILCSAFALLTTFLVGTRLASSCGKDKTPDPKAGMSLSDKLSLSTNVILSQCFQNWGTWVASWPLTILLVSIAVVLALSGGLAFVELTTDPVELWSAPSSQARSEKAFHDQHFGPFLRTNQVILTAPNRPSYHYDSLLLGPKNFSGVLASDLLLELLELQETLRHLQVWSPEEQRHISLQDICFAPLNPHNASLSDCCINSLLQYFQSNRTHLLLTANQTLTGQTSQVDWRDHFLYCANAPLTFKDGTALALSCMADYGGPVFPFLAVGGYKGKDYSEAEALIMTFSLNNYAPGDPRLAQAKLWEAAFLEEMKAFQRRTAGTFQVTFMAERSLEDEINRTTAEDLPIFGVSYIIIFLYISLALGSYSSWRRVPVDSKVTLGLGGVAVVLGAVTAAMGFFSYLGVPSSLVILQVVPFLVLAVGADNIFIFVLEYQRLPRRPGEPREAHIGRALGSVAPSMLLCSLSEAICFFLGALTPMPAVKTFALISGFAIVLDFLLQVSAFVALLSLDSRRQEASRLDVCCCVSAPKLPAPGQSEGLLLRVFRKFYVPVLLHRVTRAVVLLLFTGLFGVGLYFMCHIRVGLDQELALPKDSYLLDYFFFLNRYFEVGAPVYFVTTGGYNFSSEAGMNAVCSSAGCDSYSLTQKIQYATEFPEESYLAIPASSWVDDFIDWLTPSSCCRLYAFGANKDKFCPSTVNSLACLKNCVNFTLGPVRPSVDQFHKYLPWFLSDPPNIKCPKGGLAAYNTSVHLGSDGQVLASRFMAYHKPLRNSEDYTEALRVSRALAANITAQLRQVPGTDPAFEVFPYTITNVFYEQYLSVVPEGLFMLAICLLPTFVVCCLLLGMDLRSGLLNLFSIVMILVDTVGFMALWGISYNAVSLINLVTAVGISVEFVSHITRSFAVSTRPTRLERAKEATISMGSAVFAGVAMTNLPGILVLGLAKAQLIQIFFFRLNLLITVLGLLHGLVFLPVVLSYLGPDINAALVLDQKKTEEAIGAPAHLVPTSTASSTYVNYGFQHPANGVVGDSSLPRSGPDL
Description: Displacement of [35S](2S,3S,4S,5R,6S)-6-(4-((2S,3R)-3-((S)-3-(4-fluorophenyl)-3-hydroxypropyl)-1-(4-(3-(methylsulfonamido)prop-1-ynyl)phenyl)-4-oxoazetidin-2-yl)phenoxy)-3,4,5-trihydroxytetrahydro-2H-pyran-2-carboxylic acid from NPC1L1 in dog enterocyte brush border membrane.

Experiment [3] concerns the target T2, Niemann-Pick C1-like 1 protein (Macaca mulatta, UniProt A0MJA5).
T2 sequence (A0MJA5 whole entry): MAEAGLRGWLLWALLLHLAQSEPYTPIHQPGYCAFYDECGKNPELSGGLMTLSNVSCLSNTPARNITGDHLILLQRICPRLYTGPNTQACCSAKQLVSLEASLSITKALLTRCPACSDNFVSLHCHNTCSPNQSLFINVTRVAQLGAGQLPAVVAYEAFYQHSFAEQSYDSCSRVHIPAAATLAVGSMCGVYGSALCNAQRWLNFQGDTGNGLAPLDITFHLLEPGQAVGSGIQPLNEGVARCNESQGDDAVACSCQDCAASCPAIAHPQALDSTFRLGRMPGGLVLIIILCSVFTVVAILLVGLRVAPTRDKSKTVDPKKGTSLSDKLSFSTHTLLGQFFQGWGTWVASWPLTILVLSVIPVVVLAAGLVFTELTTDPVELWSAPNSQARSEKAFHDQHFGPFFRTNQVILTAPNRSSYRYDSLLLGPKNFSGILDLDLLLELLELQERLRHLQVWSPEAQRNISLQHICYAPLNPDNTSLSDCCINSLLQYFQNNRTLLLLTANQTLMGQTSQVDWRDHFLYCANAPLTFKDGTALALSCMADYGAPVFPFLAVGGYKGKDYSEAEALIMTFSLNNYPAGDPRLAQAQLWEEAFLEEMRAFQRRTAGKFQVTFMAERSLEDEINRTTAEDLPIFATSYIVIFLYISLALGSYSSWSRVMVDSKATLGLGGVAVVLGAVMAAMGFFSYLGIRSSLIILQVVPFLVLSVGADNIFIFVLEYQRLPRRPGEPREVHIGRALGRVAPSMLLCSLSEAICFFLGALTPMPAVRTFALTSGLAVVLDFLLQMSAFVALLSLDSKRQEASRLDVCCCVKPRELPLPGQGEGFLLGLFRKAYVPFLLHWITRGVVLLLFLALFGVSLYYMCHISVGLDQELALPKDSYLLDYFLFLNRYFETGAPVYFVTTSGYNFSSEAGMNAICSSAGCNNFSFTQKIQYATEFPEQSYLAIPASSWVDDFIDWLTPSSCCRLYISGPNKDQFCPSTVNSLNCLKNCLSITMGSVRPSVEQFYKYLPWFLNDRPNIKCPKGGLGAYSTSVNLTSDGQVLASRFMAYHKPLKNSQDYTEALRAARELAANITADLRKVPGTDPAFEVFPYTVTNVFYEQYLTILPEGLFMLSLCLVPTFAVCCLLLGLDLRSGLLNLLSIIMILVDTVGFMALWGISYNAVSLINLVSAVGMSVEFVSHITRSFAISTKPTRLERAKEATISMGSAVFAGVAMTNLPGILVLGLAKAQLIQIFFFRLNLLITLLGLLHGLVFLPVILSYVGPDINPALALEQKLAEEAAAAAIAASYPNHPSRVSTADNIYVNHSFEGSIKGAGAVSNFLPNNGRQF
The experiment can be described thus: Displacement of [35S](2S,3S,4S,5R,6S)-6-(4-((2S,3R)-3-((S)-3-(4-fluorophenyl)-3-hydroxypropyl)-1-(4-(3-(methylsulfonamido)prop-1-ynyl)phenyl)-4-oxoazetidin-2-yl)phenoxy)-3,4,5-trihydroxytetrahydro-2H-pyran-2-carboxylic acid from NPC1L1 in rhesus monkey enterocyte brush border membrane. A general note: In a radioligand displacement assay an active substance lowers the binding of a labelled ligand.

For the compound `O=C(O)[C@H]1O[C@@H](Oc2ccc([C@@H]3[C@@H](CC[C@H](O)c4ccc(F)cc4)C(=O)N3c3ccc(F)cc3)cc2)[C@H](O)[C@@H](O)[C@@H]1O`, the IC50 in experiment [1] was 3.3 µM; in experiment [2], 0.06 µM; in experiment [3], 0.03 µM.
Taken in the same sequence, the figures for `CS(=O)(=O)NCC#CN1C(=O)[C@H](CC[C@H](O)c2ccc(F)cc2)[C@H]1c1ccc(O[C@@H]2O[C@H](C(=O)O)[C@@H](O)[C@H](O)[C@H]2O)cc1` were 0.071 µM, 0.008 µM and 0.02 µM.
Taken in the same sequence, the figures for `O=C([C@@H]1C[C@@H](c2ccccc2)CN1C(=O)c1ccccc1)N1CCC2(C=Cc3ccccc32)CC1` were 118 µM, over 500 µM and 146 µM.
Taken in the same sequence, the figures for `CC(C)(C)c1ccc(C(=O)N2CCC3(CC2)C(=O)N(CC(=O)N2CCCCC2)CN3c2ccccc2)cc1` were 470 µM, 170 µM and 77 µM.

In general, IC50 refers to the concentration at which inhibition is half-maximal.

The values above are taken from ChEMBL document CHEMBL1136903, “Spiroimidazolidinone NPC1L1 inhibitors. 1: Discovery by 3D-similarity-based virtual screening” (Bioorg Med Chem Lett, 2009).
